The subject of one data set is HBV. Briefly: Anti-HBV activity in HepG2.117 cell line (intracellular HBV DNA, real-time PCR). Conditions: HepG2.117 cells, HBV replication induced, 3 days of treatment, intracellular HBV DNA by real-time PCR. It is filed as cell-based, hepatitis B virus. On the procedure:
The anti HBV activity was measured using the HepG2.117 cell line, a stable, inducibly HBV producing cell line, which replicates HBV in the absence of doxycycline (Tet-off system). The HepG2 cell line is available from ATCCR under number HB-8065. Transfection of the HepG2 cell line can be as described in Sun and Nassal 2006 Journal of Hepatology 45 (2006) 636-645 “Stable HepG2-and Huh7-based human hepatoma cell lines for efficient regulated expression of infectious hepatitis B virus”.
For the antiviral assay, HBV replication was induced, followed by a treatment with serially diluted compound in 96-well plates. After 3 days of treatment, the antiviral activity was determined by quantification of intracellular HBV DNA using real-time PCR and an HBV specific primer set and probe.
For orientation: In qPCR the cycle at which signal appears reflects the starting amount.

Data set [1] can be described thus: Human liver microsome stability. The format is in vitro ADME. Conditions: human, pooled human liver microsomes, pH 7.4, pooled human liver microsomes 0.5 mg/mL, 1 μM compound, NADPH 1 mM, pH 7.4, 37° C., 0-60 min; read-out: HLM Metabolism t1/2. On the procedure:
Pooled human liver microsomes (0.5 mg/mL) was pre-incubated with 1 μM test compounds or control compounds (verapamil, warfarin and cerivastatin) in 0.1 M phosphate buffer pH 7.4 containing 1 mM MgCl2 at 37° C. The final concentration of DMSO and acetonitrile are 0.05% and 0.2%, respectively. All incubations are performed singularly for each compound. NADPH was added to initiate the reaction with the final concentration of 1 mM and the final incubation volume of 400 μL.
At 6 time points (0, 5, 10, 20, 40 and 60 min) reactions were stopped by the removal of 50 μL of the incubation mixture into plates containing acetonitrile at a of 1:3 (v:v). The plates were centrifuged at 3000 rpm for 10 min at 4° C. to precipitate the protein. Following protein precipitation, the sample supernatants were combined in cassettes of up to 8 compounds. The internal standard was added (1:1 supernatant to internal standard solution) and samples were analyzed using standard LC-MS conditions.
From a plot of ln peak area ratio (compound peak area/internal standard peak area) against time, the gradient of the line is determined. Subsequently, half-life is calculated using the equations below: […]
For orientation: Microsomes from liver hold many membrane-bound enzymes, among them those of drug oxidation.

Data set [2] is described as follows: Cytotoxicity, ATPlite Luminescence Assay. It is filed as cell-based, human. Conditions: human, HepG2 or HepG2.117 cells, 3-days incubation unless marked with *, ATPlite viability. On the procedure: Cytotoxicity of the compounds was tested using HepG2 or HepG2.117 cells, incubated for 3 or 4 days in the presence of compounds. The viability of the cells was assessed using the PERKIN ELMER ATPlite Luminescence Assay System.”
(In general: In ATP-based viability assays light output follows the ATP content of the culture.)

Setting [3] is: Hepatitis B virus, HepG2.117, 72 h.

Structures are written as SMILES.

`CC(c1ccccn1)N1CCn2nc3c(c2C1=O)CN(C(=O)c1ccc(Cl)c(Cl)c1)[C@H](C)C3` (mixture of isomers) [Ref 3, reference compound]: the EC50 (usually the concentration giving half of the maximal effect) in the data set on HBV (setting [3]) worked out at 0.072 µM. Further, the half-life at 1 μM in data set [1] was 0.11 h.

Compound `CNC(=O)[C@@H]1CN(C(C)c2ccc(C)nn2)C(=O)c2c3c(nn21)C[C@@H](C)N(C(=O)c1ccc(Cl)c(Cl)c1)C3` (single isomer, unassigned) [Compound 1B, (3R,7S)-2-(3,4-Dichlorobenzoyl)-N,3-dimethyl-9-((S*)-1-(6-methylpyridazin-3-yl)ethyl)-10-oxo-1,2,3,4,7,8,9,10-octahydropyrido[4′,3′:3,4]pyrazolo[1,5-a]pyrazine-7-carboxamide] yielded an EC50 with HBV (setting [3]) of 0.38 µM. Also, in data set [1], the half-life at 1 μM was more than 3 h. The CC50 (commonly the concentration that lowers cell viability or growth by half) in data set [2] is more than 50 µM.

Take `CNC(=O)[C@@H]1CN(C(C)c2ccc(-n3cncn3)cc2)C(=O)c2c3c(nn21)C[C@@H](C)N(C(=O)c1ccc(Cl)c(Cl)c1)C3` (single isomer, unassigned) [Compound 2A, (3R,7S)-9-((R*)-1-(4-(1H-1,2,4-triazol-1-yl)phenyl)ethyl)-2-(3,4-dichlorobenzoyl)-N,3-dimethyl-10-oxo-1,2,3,4,7,8,9,10-octahydropyrido[4′,3′:3,4]pyrazolo[1,5-a]pyrazine-7-carboxamide]: in the data set on HBV, the response was half-maximal at 0.042 µM (EC50). Further, the half-life at 1 μM in data set [1] was more than 3 h. Besides, the 50% cytotoxic concentration (CC50) in data set [2] was more than 50 µM.

`CNC(=O)[C@@H]1CN(C(C)c2ccc(C(C)(C)O)nc2)C(=O)c2c3c(nn21)C[C@@H](C)N(C(=O)c1ccc(Cl)c(Cl)c1)C3` (single isomer, unassigned) [Compound 3B, (3R,7S)-2-(3,4-Dichlorobenzoyl)-9-((S*)-1-(6-(2-hydroxypropan-2-yl)pyridin-3-yl)ethyl)-N,3-dimethyl-10-oxo-1,2,3,4,7,8,9,10-octahydropyrido[4′,3′:3,4]pyrazolo[1,5-a]pyrazine-7-carboxamide] registered a 50% effective concentration (EC50) in the data set on HBV (setting [3]) of 0.051 µM. Further, the half-life at 1 μM in data set [1] is more than 3 h. This compound gave a CC50 in data set [2] of more than 50 µM.

Take `CNC(=O)[C@@H]1CN(C(C)c2ccc(C(C)(C)O)cc2)C(=O)c2c3c(nn21)C[C@@H](C)N(C(=O)c1ccc(Cl)c(Cl)c1)C3` (single isomer, unassigned) [Compound 5B, (3R,7S)-2-(3,4-Dichlorobenzoyl)-9-((S*)-1-(4-(2-hydroxypropan-2-yl)phenyl)ethyl)-N,3-dimethyl-10-oxo-1,2,3,4,7,8,9,10-octahydropyrido[4′,3′:3,4]pyrazolo[1,5-a]pyrazine-7-carboxamide]: in the data set on HBV (setting [3]), the EC50 was found to be 0.019 µM. The half-life at 1 μM in data set [1] was 1.44 h. Besides, the CC50 in data set [2] is more than 50 µM.

`CC(c1ccc(C(F)(F)F)nc1)N1C[C@@H](C(=O)N(C)C)n2nc3c(c2C1=O)CN(C(=O)c1ccc(Cl)c(Cl)c1)[C@H](C)C3` (single isomer, unassigned) [Compound 8B, (3R,7S)-2-(3,4-dichlorobenzoyl)-N,N,3-trimethyl-10-oxo-9-((S*)-1-(6-(trifluoromethyl)pyridin-3-yl)ethyl)-1,2,3,4,7,8,9,10-octahydropyrido[4′,3′:3,4]pyrazolo[1,5-a]pyrazine-7-carboxamide]: in the data set on HBV (setting [3]), it took 0.071 µM to reach a half-maximal effect (EC50). Besides, the half-life at 1 μM in data set [1] is more than 3 h. The compound further came in with a CC50 in data set [2] of more than 50 µM.

The compound `CNC(=O)[C@@H]1CN(C(C)c2ccnc(C(F)(F)F)c2)C(=O)c2c3c(nn21)C[C@@H](C)N(C(=O)c1ccc(Cl)c(Cl)c1)C3` (single isomer, unassigned) [Compound 9B, (3R,7S)-2-(3,4-Dichlorobenzoyl)-N,3-dimethyl-10-oxo-9-((S*)-1-(2-(trifluoromethyl)pyridin-4-yl)ethyl)-1,2,3,4,7,8,9,10-octahydropyrido[4′,3′:3,4]pyrazolo[1,5-a]pyrazine-7-carboxamide] displayed a concentration for a half-maximal effect (EC50) in the data set on HBV (setting [3]) of 0.061 µM. In addition, the half-life at 1 μM in data set [1] was more than 3 h. The compound further showed a CC50 in data set [2] of more than 50 µM.

`CNC(=O)[C@@H]1CN(C(C)c2ccc(C(F)(F)F)nc2)C(=O)c2c3c(nn21)C[C@@H](C)N(C(=O)c1ccc(Br)c(Cl)c1)C3` (single isomer, unassigned) [Compound 10B, (3R,7S)-2-(4-bromo-3-chlorobenzoyl)-N,3-dimethyl-10-oxo-9-((S*)-1-(6-(trifluoromethyl)pyridin-3-yl)ethyl)-1,2,3,4,7,8,9,10-octahydropyrido[4′,3′:3,4]pyrazolo[1,5-a]pyrazine-7-carboxamide]: the EC50 with HBV (setting [3]) was 0.019 µM. The half-life at 1 μM in data set [1] was more than 3 h. In data set [2], this compound returned a CC50 of 46.8 µM.

Turning to `CC(c1ccc(OC(F)F)nc1)N1C[C@@H](C(N)=O)n2nc3c(c2C1=O)CN(C(=O)c1ccc(Cl)c(Cl)c1)[C@H](C)C3` (single isomer, unassigned) [Compound 12A, (3R,7S)-2-(3,4-Dichlorobenzoyl)-9-((R*)-1-(6-(difluoromethoxy)pyridin-3-yl)ethyl)-3-methyl-10-oxo-1,2,3,4,7,8,9,10-octahydropyrido[4′,3′:3,4]pyrazolo[1,5-a]pyrazine-7-carboxamide], in the data set on HBV, the midpoint of the response, the EC50, lay at 0.059 µM. Besides, in data set [1], the half-life at 1 μM is more than 3 h. This compound gave a half-maximal cytotoxic concentration (CC50) in data set [2] of 24.4 µM.

On to `CNC(=O)[C@@H]1CN(C(C)c2ccn(CC(F)(F)F)n2)C(=O)c2c3c(nn21)C[C@@H](C)N(C(=O)c1ccc(Cl)c(C(F)(F)F)c1)C3` (single isomer, unassigned) [Compound 14B, (3R,7S)-2-(4-chloro-3-(trifluoromethyl)benzoyl)-N,3-dimethyl-10-oxo-9-((S*)-1-(1-(2,2,2-trifluoroethyl)-1H-pyrazol-3-yl)ethyl)-1,2,3,4,7,8,9,10-octahydropyrido[4′,3′:3,4]pyrazolo[1,5-a]pyrazine-7-carboxamide], for which the EC50 with HBV (setting [3]) was found to be 0.031 µM. In addition, the half-life at 1 μM in data set [1] is more than 3 h. In addition, in data set [2], the CC50 was more than 50 µM.

In the data set on HBV, `CNC(=O)[C@@H]1CN(C(C)c2ccc(S(C)(=O)=O)cc2)C(=O)c2c3c(nn21)C[C@@H](C)N(C(=O)c1ccc(Cl)c(C(F)(F)F)c1)C3` (single isomer, unassigned) [Compound 19A, (3R,7S)-2-(4-Chloro-3-(trifluoromethyl)benzoyl)-N,3-dimethyl-9-((R*)-1-(4-(methylsulfonyl)phenyl)ethyl)-10-oxo-1,2,3,4,7,8,9,10-octahydropyrido[4′,3′:3,4]pyrazolo[1,5-a]pyrazine-7-carboxamide] came in with a concentration for a half-maximal effect (EC50) of 0.12 µM. The half-life at 1 μM in data set [1] is more than 3 h. The CC50 in data set [2] is more than 50 µM.

In the case of `CNC(=O)[C@@H]1CN(C(C)c2ccc(S(=O)(=O)C3CC3)cc2)C(=O)c2c3c(nn21)C[C@@H](C)N(C(=O)c1ccc(Cl)c(C(F)(F)F)c1)C3` (single isomer, unassigned) [Compound 20A, (3R,7S)-2-(4-Chloro-3-(trifluoromethyl)benzoyl)-9-((R*)-1-(4-(cyclopropylsulfonyl)phenyl)ethyl)-N,3-dimethyl-10-oxo-1,2,3,4,7,8,9,10-octahydropyrido[4′,3′:3,4]pyrazolo[1,5-a]pyrazine-7-carboxamide], the EC50 in the data set on HBV is 0.089 µM. Besides, in data set [1], the half-life at 1 μM is more than 3 h. The same compound showed a CC50 in data set [2] of more than 50 µM.

For the compound `CCC(c1ccc(S(C)(=O)=O)cc1)N1C[C@@H](C(=O)NC)n2nc3c(c2C1=O)CN(C(=O)c1ccc(Cl)c(Cl)c1)[C@H](C)C3` (single isomer, unassigned) [Compound 22A, (3R,7S)-2-(3,4-Dichlorobenzoyl)-N,3-dimethyl-9-((R*)-1-(4-(methylsulfonyl)phenyl)propyl)-10-oxo-1,2,3,4,7,8,9,10-octahydropyrido[4′,3′:3,4]pyrazolo[1,5-a]pyrazine-7-carboxamide], the concentration giving a half-maximal response (EC50) with HBV turned out to be 0.27 µM. Also, the half-life at 1 μM in data set [1] is more than 3 h. In addition, in data set [2], the 50% cytotoxic concentration (CC50) was more than 50 µM.

In turn, `C[C@@H]1Cc2nn3c(c2CN1C(=O)c1ccc(Cl)c(Cl)c1)C(=O)N([C@H](C)c1ccc(C#N)cc1)CC3` [Ref 4, reference compound] came in with an EC50 with HBV (setting [3]) of 0.076 µM. Moreover, the half-life at 1 μM in data set [1] was found to be 0.225 h.

For `C[C@@H]1Cc2nn3c(c2CN1C(=O)c1ccc(Cl)c(Cl)c1)C(=O)N([C@@H](C)c1ccc(C#N)cc1)CC3` [Ref 5, reference compound], the half-maximal effective concentration (EC50) in the data set with HBV (setting [3]) worked out at 0.022 µM. Also, the half-life at 1 μM in data set [1] stood at 0.132 h.

Values taken from patent publication US20240279227A1, “FUSED HETEROCYCLIC DERIVATIVES” (Janssen Sciences Ireland Unlimited Company, priority 2021, published 2024).
